Data set [1] concerns the target T1, preformed α-Syn amyloid fibrils (Homo sapiens, UniProt P37840).
T1 construct: made in house; host or cells: Escherichia coli BL21
Put plainly: TEM of preformed α-Syn fibrils with analogs. In kind it is biochemical. As to conditions: after 48 h incubation with analog. As to the method: (§1) The samples were then washed thrice with autoclaved MQ. The samples were then stained with 10 μl of uranyl formate 1% (w/v) and incubated in dark for 10 min. The EM image of each sample was acquired at 120 kV with magnifications in the range of 26,000X and 43,000X using a transmission electron microscope (TECNAI12 D312 FEI, Netherlands).

The target of data set [2] is T2, preformed α-Syn fibrils (Homo sapiens, UniProt P37840).
T2 construct: made in house; host or cells: Escherichia coli BL21
Kind of data set: Nile red binding assay on preformed α-Syn fibrils. The class given is biochemical. As to conditions: fibrils incubated with analog 48 h. As to the method: Stock solution of NR was prepared in DMSO (1 mM). […] Similar experimental protocol was used for NR binding to oligomers. FluoroMax-4 spectrofluorometer (HORIBA JobinYvon) was used with excitation and emission slit widths of 5 nm. The maximum NR fluorescence obtained at ~630 nm was used for plotting bar diagrams.

Data set [3] is described as follows: Stability of curcumin analogs by time-dependent intrinsic fluorescence. The settings on record: 20 mM MES buffer pH 6.0, 0.01% NaN3, 37 °C. In kind it is physicochemical. On the procedure:
1μl of this DMSO-stock solution was transferred to 2 ml microfuge tube and 1 ml of 20 mM MES buffer (pH 6.0, 0.01% NaN3) was added to it and mixed immediately by vortexing. These solutions were incubated at 37 °C and their respective fluorescence was taken at certain time intervals. The fluorescence was monitored by placing the 200 μl of the incubated solution in 0.1 cm path-length quartz cuvette (Hellma, Forest Hills, NY) and the spectra were acquired by using FluoroMax-4 spectrofluorometer (HORIBA JobinYvon) instrument with excitation and emission slit widths of 5 nm and 10 nm respectively. The fluorescence intensity maxima for each sample were plotted against time of incubation and fitted in exponential decay 1 in the Origin 8.0 software according to manufacture’s protocol (Fig. 2A).

The next data set addresses T3, α-Syn (Homo sapiens, UniProt P37840).
T3 construct: made in house; host or cells: Escherichia coli BL21
Put plainly: TEM of α-Syn aggregates formed in presence of analogs. In kind it is biochemical. As to the method: Subsequently, we examined the effect of these analogs on α-Syn oligomerization by time dependent static light scattering experiment. […] After aggregation, TEM study was done to determine the effects of these analogs on the morphology of the resultant aggregates.
as §1

In data set [4] the target is T4, α-Syn oligomers (Homo sapiens, UniProt P37840).
T4 construct: made in house; host or cells: Escherichia coli BL21
Put plainly: LDH cytotoxicity assay of α-Syn oligomers with C1/C6. In kind it is cell-based. The settings on record: oligomers incubated 30 minutes with compound; SH-SY5Y cells. An excerpt: It has been shown that α-Syn mutants that form oligomers preferentially are more toxic and kill dopaminergic neurons in animal models as compared to fibril forming mutants. Therefore, compounds that effectively reduce the toxicity of oligomers could be beneficial for the treatment of PD. In the present study, we tested the effect of curcumin and its analogs on the toxicity, hydrophobic exposure and morphology of α-Syn oligomers isolated using size exclusion chromatography (SEC). The toxicity of α-Syn oligomers in presence and absence of curcumin/analogs were initially tested using MTT assay. […] To further validate the effectiveness of C6 to reduce the cytotoxicity of α-Syn oligomers, we also performed LDH cytotoxicity assay and Calcein-AM/Ethidium homodimer-1 staining. […] As previously it has been proposed that curcumin reduces the oligomers toxicity by altering their exposed hydrophobic surface, we also measured the hydrophobic surface exposure of preformed α-Syn oligomers incubated with curcumin and its analogs.
10 μM of α-Syn oligomers/fibrils incubated with and without 5 μM curcumin/analogs were added to SH-SY5Y cells (10,000 cells/well) in 96 well plate. […] The percent LDH release was plotted as difference in the absorbance value of 490 nm and 690 nm, considering 100% release for the TritonX-100 treated cells.

A further data set addresses T5, α-Syn fibrils (Homo sapiens, UniProt P37840).
T5 construct: made in house; host or cells: Escherichia coli BL21
Put plainly: LDH cytotoxicity assay of α-Syn fibrils formed in presence of curcumin analogs. In kind it is cell-based. As to conditions: SH-SY5Y cells. An excerpt:
The percent LDH release was plotted as difference in the absorbance value of 490 nm and 690 nm, considering 100% release for the TritonX-100 treated cells.

Data set [5] concerns the target T2, preformed α-Syn fibrils. Kind of data set: CD spectroscopy of preformed α-Syn fibrils with analogs. In kind it is biochemical. The settings on record: 0 h and 48 h of incubation. On the procedure:
Further, the effect of curcumin analogs on the secondary structure of protein in preformed amyloid fibrils was studied by circular dichroism (CD) spectroscopy at 0 h and after 48 h of incubation. […] To further validate this, Fourier transform infrared spectroscopy (FTIR) was also performed with these samples, where spectra were recorded from 1500 to 1800 cm^−1.The region characteristic of protein secondary structures (1600–1700 cm^−1) was deconvoluted and the peaks were assigned according to published reports. FTIR spectra in the 1600–1700 cm^−1 region of preformed α-Syn fibrils in absence and presence of curcumin and its analogs are presented in Figs 4B and S4 and their percentage of secondary structures are shown in Table-S1.
20 μl of protein solution from 80 μM stock was diluted to 200 μl in 20 mM MES buffer, pH 6.0 with 0.01% NaN3 such that final protein concentration becomes 8 μM. The protein solution was then placed into a quartz cell (Hellma, Forest Hills, NY) of 0.1 cm path-length. Spectra were recorded using JASCO-810 instrument at 25 °C. Spectra acquisition was over the wavelength range of 198–260 nm with the scan speed of 100 nm/min, bandwidth 1 nm, data pitch 1 nm and response time of 1 sec. Processing of raw data was done by subtraction of buffer spectra and subsequently smoothing according to the manufacturer’s instructions.

In data set [6] the target is T4, α-Syn oligomers. Kind of data set: Calcein-AM/EthD-1 staining, α-Syn oligomers with C1/C6. The class given is cell-based. As to conditions: SH-SY5Y cells. An excerpt: It has been shown that α-Syn mutants that form oligomers preferentially are more toxic and kill dopaminergic neurons in animal models as compared to fibril forming mutants. Therefore, compounds that effectively reduce the toxicity of oligomers could be beneficial for the treatment of PD. In the present study, we tested the effect of curcumin and its analogs on the toxicity, hydrophobic exposure and morphology of α-Syn oligomers isolated using size exclusion chromatography (SEC). The toxicity of α-Syn oligomers in presence and absence of curcumin/analogs were initially tested using MTT assay. […] As previously it has been proposed that curcumin reduces the oligomers toxicity by altering their exposed hydrophobic surface, we also measured the hydrophobic surface exposure of preformed α-Syn oligomers incubated with curcumin and its analogs.
For this assay, SH-SY5Y cells were seeded in 96 well plate and incubated with identical concentrations of oligomers/fibrils (as used in MTT assay) in absence and presence of curcumin and its analogs for 36 h in 5% CO2 incubator at 37 °C. […] Calcein-AM/Ethidium homodimer-1 signal was then checked and imaged with an inverted fluorescence microscope (Leica DMi8). […] The free calcein emits strong fluorescence signal at ~535 nm, which could be easily observed in the green channel of a microscope. […]

The values below come from paper PMC4919791, “Effect of curcumin analogs onα-synuclein aggregation and cytotoxicity” (Scientific Reports, 2016).

In the case of `COc1cc(/C=C/C(=O)CC(=O)/C=C/c2ccc(OCc3ccccc3)c(OC)c2)ccc1OCc1ccccc1` [C6], the “fibril morphology/thickness of preformed α-Syn fibrils (TEM, words)” value in data set [1] was “clustering was more”. The “Nile red fluorescence of preformed α-Syn fibrils (exposed hydrophobic surface)” value at preformed α-Syn fibrils [2] is given as “less NR fluorescence for fibrils as compared to curcumin”. The “relative stability compared with curcumin (slope of normalized fluorescence versus time)” value in data set [3] is listed as “relatively more stable than curcumin”. Moreover, the “average fibril thickness of fibrils formed in presence of analog” value at α-Syn was “more in comparison to fibrils formed in presence of other analogs”. For the same compound, the “LDH release with α-Syn oligomers” value at α-Syn oligomers [4] is reported as “reduced LDH release”. The “toxicity of α-Syn fibrils formed in presence of analog, LDH” value on α-Syn fibrils was “less toxicity to cells”. In addition, the “secondary structure of preformed α-Syn fibrils by CD” value on preformed α-Syn fibrils [5] is listed as “remains unaltered”. The “ethidium homodimer staining with α-Syn oligomers” value on α-Syn oligomers [6] was “less ethidium homodimer staining”.
